This series in a line: Initiator absorptivity, 400–500 nm in acetonitrile. It is filed as physicochemical. Particulars: normalized by mass. On the procedure:
The absorptivity is the absorbance in the range of 400–500 nm in acetonitrile normalized by mass. The higher the value, the higher the absorption in the visible light range. The first three initiators undergo unimolecular bond cleavage upon irradiation. The last three initiators require a co-initiator, such as an amine, to undergo a bimolecular reaction. The initiators (and EDMAB amine if required) were added to the resin. Samples were coated on a white mixing pad, evaporated for greater than 60 seconds, and irradiated at 500 mW/cm^2 using a Bisco VIP light curing system. Samples were irradiated for 5 seconds, 10 seconds, 30 seconds, and 10 seconds in the absence of air. The “no air” cure was performed between two Mylar slips, each 0.25 mm thick. The actual concentration of initiator in the resin was double that shown in the table due to the evaporation of the acetone.
With `CC12CCC(C(=O)C1=O)C2(C)C` (stereo not drawn) [CQ, camphorquinone], the “Absorbance × 10^−3” value is on record as 11 × 10^−3.
Consider `Cc1cc(C)c(C(=O)P(=O)(C(=O)c2c(C)cc(C)cc2C)c2ccccc2)c(C)c1` [Composition 819, bis(2,4,6-trimethylbenzoyl)-phenylphosphineoxide], for which the “Absorbance × 10^−3” value is reported as 23 × 10^−3.
In the case of `CCCCOc1ccc2cc3cc(I)c(=O)c(I)c-3oc2c1` [HNu, 5,7-diiodo-3-butoxy-6-fluorone], the “Absorbance × 10^−3” value is reported as 2960 × 10^−3.
As for `O=C1C(=O)c2ccccc2-c2ccccc21` [PAQ, phenanthrenequinone], the “Absorbance × 10^−3” value is listed as 466 × 10^−3.
Regarding `Cc1cc(C)c(C(=O)P(=O)(c2ccccc2)c2ccccc2)c(C)c1` [TPO, 2,4,6-trimethylbenzoyl-diphenylphosphinate], the “Absorbance × 10^−3” value is given as 6 × 10^−3.
`CCOP(=O)(C(=O)c1c(C)cc(C)cc1C)c1ccccc1` (stereo not drawn) [TPOL, ethyl-2,4,6-trimethylbenzoyl-phenylphosphinate]: the “Absorbance × 10^−3” value is recorded as 4 × 10^−3.

For the origin of these results see US7081485B2, “Non-volatile dental compositions containing multifunctional acrylate compounds and lacking an oxygen-inhibited layer” (Bisco, Inc., priority 2002, dated 2006).
